What was measured:
[1] = tested on: thromboxane synthetase; conditions: prior art compounds, as noted in British patent specification; cited from earlier work
[2] = molecular target: T1, TXA2 synthetase (Homo sapiens, UniProt P24557); assay: TXA2 inhibition test: TXA2 generated from PGH2 with human platelet microsomes, response of superfused rabbit aortic strips; format: biochemical; conditions: rabbit aorta response
T1 construct: human platelet microsomes (HPM); from tissue; host or cells: human platelet microsomes
T1 sequence (P24557 1-533): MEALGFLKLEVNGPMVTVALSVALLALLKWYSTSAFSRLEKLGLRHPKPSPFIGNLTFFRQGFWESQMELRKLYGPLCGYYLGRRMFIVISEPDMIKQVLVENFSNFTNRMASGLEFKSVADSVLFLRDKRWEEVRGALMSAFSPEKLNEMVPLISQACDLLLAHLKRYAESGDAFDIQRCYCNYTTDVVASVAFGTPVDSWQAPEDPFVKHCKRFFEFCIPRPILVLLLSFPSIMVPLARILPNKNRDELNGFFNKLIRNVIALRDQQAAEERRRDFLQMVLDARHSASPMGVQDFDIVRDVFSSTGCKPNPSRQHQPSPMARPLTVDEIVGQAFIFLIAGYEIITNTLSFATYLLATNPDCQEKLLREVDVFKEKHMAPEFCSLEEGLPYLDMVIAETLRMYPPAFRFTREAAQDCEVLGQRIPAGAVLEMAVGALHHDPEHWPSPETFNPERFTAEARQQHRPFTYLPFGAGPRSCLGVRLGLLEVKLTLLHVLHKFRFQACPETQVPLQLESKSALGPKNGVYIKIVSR
Description: The compounds of the present invention were tested for TXA2 inhibition as follows:
Rabbit aortic strips were superfused in series with Krebs solution. Thromboxane A2 (TXA2) was generated by mixing prostaglandin H2 (PGH2) with human platelet microsomes (HPM).
Potential inhibitors were tested by comparing the response of the rabbit aorta to the amount of TXA2 produced by mixing PGH2 and HPM without the test compound in the reaction medium and then the amount of TXA2 produced when the test compound was added to the HPM 5 minutes before the HPM was mixed with PGH2. […] For a discussion of TXA2 synthetase inhibition testing see, e.g., R. Gorman, supra.

Row | effectiveness in inhibiting TXA2 formation (in words) [2] | Compound | inhibitory activity on thromboxane synthetase (in words) [1]
1 |  | CCCCCC=CC[C@@H](C=CC=CCC=CCCCC(=O)O)OO [12L-hydroperoxy-5,8,10,14-eicosatetraenoic acid] | very weak
2 | most effective | c1cncc(-c2ccc3c(c2)CN2CN3Cc3cc(-c4cccnc4)ccc32)c1 [Example 1, 2,8-Di(3-pyridyl)-6H,12H-5,11-methanodibenzo[b,f][1,5]diazocine] | 
3 |  | CC(Cc1ccc(O)c(O)c1)C(C)Cc1ccc(O)c(O)c1 (stereo not shown) [nordihydroguaiaretic acid] | very weak
4 |  | sodium p-benzyl-4(1-oxo-2-(4-chlorobenzyl)-3-phenylpropyl)phenyl phosphate | very weak
